Results: patent publication US12466781B2, “Thyromimetics” (Autobahn Therapeutics, Inc., priority 2019, dated 2025)
Read-outs that look alike come from different tables or passages of the source.

What was measured:
TRβ = biological target: T1, TRβ (Homo sapiens, UniProt P10828); assay: Thyroid-hormone reporter-gene assay (TRβ-Gal4 hybrid, luciferase, HEK293); type: cell-based; conditions: for T3-SI (selectivity index): calculated as EC50 (TRα)/EC50 (TRβ)
T1 construct: expressed in transfected cells; host or cells: HEK293
T1 sequence (P10828 217-461 limits assumed): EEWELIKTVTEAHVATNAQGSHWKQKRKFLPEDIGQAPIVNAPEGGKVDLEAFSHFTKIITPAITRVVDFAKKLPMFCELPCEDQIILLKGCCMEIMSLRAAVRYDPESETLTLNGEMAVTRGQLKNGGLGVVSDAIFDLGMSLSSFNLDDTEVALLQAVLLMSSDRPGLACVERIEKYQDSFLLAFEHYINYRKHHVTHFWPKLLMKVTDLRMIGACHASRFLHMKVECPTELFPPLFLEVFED
Method: (§1) Compounds were tested for thyroid-hormone receptor activity using TR reporter-gene assays. Reporter cells used in the assays express a TR-receptor hybrid (either TRα or TRβ) in which the native N-terminal DNA binding domain (DBD) has been replaced with that of the yeast Gal4 DBD. The reporter gene, firefly luciferase, is functionally linked to the Gal4 upstream activation sequence (UAS). Both cell lines were derived from human embryonic kidney (HEK293).
(§2) Step 1: A suspension of reporter cells was prepared in cell recovery medium containing 10% charcoal-stripped FBS, and dispensed into assay plates. The plates were pre-incubated for 6 hours in a cell culture incubator (37° C./5% CO2/85% humidity).
(§3) These intermediate stocks were subsequently diluted directly into compound screening medium containing 10% charcoal-stripped FBS to generate “2×-concentration” treatment media (containing 0.2, 0.4 or 0.8% DMSO).
(§4) Step 3: At the end of the pre-incubation period, culture media were discarded from the assay plates, and all wells received 100 μl of compound screening medium. 100 μl of each of the previously prepared “2×-concentration” treatment media were dispensed into duplicate assay wells, thereby achieving the desired final treatment concentrations. The final concentration of DMSO in all assay wells was 0.1, 0.2 or 0.4%. Assay plates were incubated for 24 hr in a cell culture incubator (37° C./5% CO2/85% humidity).
(§5) Step 4: At the 24 h assay endpoint, treatment media were discarded and 100 μl/well of luciferase detection reagent was added. Relative luminometer units (RLUs) were quantified from each assay well.

TRα = biological target: T2, TRα (Homo sapiens, UniProt P10827); assay: Thyroid-hormone reporter-gene assay (TRα-Gal4 hybrid, luciferase, HEK293); type: cell-based
T2 construct: expressed in transfected cells; host or cells: HEK293
T2 sequence (P10827 163-410 isoform P10827-2 limits assumed): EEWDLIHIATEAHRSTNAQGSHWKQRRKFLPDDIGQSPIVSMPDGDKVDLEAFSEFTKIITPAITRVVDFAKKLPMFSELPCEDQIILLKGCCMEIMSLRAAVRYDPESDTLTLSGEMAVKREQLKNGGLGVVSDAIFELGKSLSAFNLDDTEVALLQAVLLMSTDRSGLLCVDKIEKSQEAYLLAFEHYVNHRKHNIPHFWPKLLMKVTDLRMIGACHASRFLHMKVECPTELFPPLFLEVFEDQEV
Method: as §1, §2, §3, §4, §5

[1] = reporter cells, 24 hr incubation, Table 2, read-out: TRβ (EC50)
[2] = reporter cells, 24 hr incubation, Table 2, read-out: TRα (EC50)

Compound	T3-SI (selectivity index) (TRβ; Table 2)	EC50 (TRβ; [1])	EC50 (TRα; [2])	EC50 (TRβ; Table 3, read-out: EC50-TRβ)	T3-SI (TRβ; selectivity index, Table 3)	EC50 (TRα; Table 3, read-out: EC50-TRα)
CCOC(=O)COc1cc(F)c(Cc2ccc(O)c(C(C)C)c2)c(Cl)c1F [Compound 147, ethyl 2-(3-chloro-2,5-difluoro-4-(4-hydroxy-3-isopropylbenzyl)phenoxy)acetate]	+++ (T3-SI>30×)	0.1 to 1 µM	> 1 µM			
Cc1c(OCC(=O)O)cc(Cl)c(Cc2ccc(O)c(C(C)C)c2)c1Cl [Compound 91, 2-(3,5-dichloro-4-(4-hydroxy-3-isopropylbenzyl)-2-methylphenoxy)acetic acid]	+++ (T3-SI>30×)	0.01 to 0.1 µM	0.1 to 1 µM			
CNC(=O)COc1cc(Cl)c(Cc2ccc(O)c(C(C)C)c2)c(Cl)c1OC [Compound 167, 2-(3,5-dichloro-4-(4-hydroxy-3-isopropylbenzyl)-2-methoxyphenoxy)-N-methylacetamide]	++ (3×<T3-SI≤30×)	0.01 to 0.1 µM	0.01 to 0.1 µM			
CC(C)c1c(O)ccc(Cc2c(Cl)cc(OCC(=O)O)cc2Br)c1F [Compound 40, 2-(3-bromo-5-chloro-4-(2-fluoro-4-hydroxy-3-isopropylbenzyl)phenoxy)acetic acid]	++ (3×<T3-SI≤30×)	< 0.01 µM	< 0.01 µM			
O=C(O)COc1cc(Cl)c(Cc2ccc(O)c(Cc3ccc(F)cc3)c2F)c(Cl)c1 [Compound 28, 2-(3,5-dichloro-4-(2-fluoro-3-(4-fluorobenzyl)-4-hydroxybenzyl)phenoxy)acetic acid]	++ (3×<T3-SI≤30×)	0.01 to 0.1 µM	0.01 to 0.1 µM			
Cc1cc(OCC(=O)O)cc(C(C)C)c1Cc1ccc(O)c(C(C)C)c1F [Compound 13, 2-(4-(2-fluoro-4-hydroxy-3-isopropylbenzyl)-3-isopropyl-5-methylphenoxy)acetic acid]	++ (3×<T3-SI≤30×)	< 0.01 µM	< 0.01 µM			
Cc1cc(OCC(=O)O)c(F)c(C)c1Cc1ccc(O)c(C(C)C)c1F [Compound 93, 2-(2-fluoro-4-(2-fluoro-4-hydroxy-3-isopropylbenzyl)-3,5-dimethylphenoxy)acetic acid]	+++ (T3-SI>30×)	0.01 to 0.1 µM	0.1 to 1 µM			
Cc1cc(OCC(=O)O)cc(Cl)c1Cc1ccc(O)c(C(C)C)c1F [Compound 36, 2-(3-chloro-4-(2-fluoro-4-hydroxy-3-isopropylbenzyl)-5-methylphenoxy)acetic acid]	++ (3×<T3-SI≤30×)	0.01 to 0.1 µM	0.01 to 0.1 µM			
O=C(O)COc1cc(Cl)c(Cc2ccc(O)c(-c3cc(C(F)(F)F)ccc3F)c2F)c(Cl)c1 [Compound 25, 2-(3,5-dichloro-4-((2,2′-difluoro-6-hydroxy-5′-(trifluoromethyl)-[1,1′-biphenyl]-3-yl)methyl)phenoxy)acetic acid]	++ (3×<T3-SI≤30×)	< 0.01 µM	0.01 to 0.1 µM			
C=C(C)c1cc(OCC(=O)O)cc(C)c1Cc1ccc(O)c(C(C)C)c1F [Compound 12, 2-(4-(2-fluoro-4-hydroxy-3-isopropylbenzyl)-3-methyl-5-(prop-1-en-2-yl)phenoxy)acetic acid]	++ (3×<T3-SI≤30×)	< 0.01 µM	0.01 to 0.1 µM			
CC(C)c1cc(Cc2c(C(C)C)cc(OCC(=O)O)c(F)c2Cl)ccc1O [Compound 81, 2-(3-chloro-2-fluoro-4-(4-hydroxy-3-isopropylbenzyl)-5-isopropylphenoxy)acetic acid]	++ (3×<T3-SI≤30×)	0.01 to 0.1 µM	0.01 to 0.1 µM			
C=Cc1c(F)c(OCC(=O)O)cc(Cl)c1Cc1ccc(O)c(C(C)C)c1 [Compound 67, 2-(5-chloro-2-fluoro-4-(4-hydroxy-3-isopropylbenzyl)-3-vinylphenoxy)acetic acid]	++ (3×<T3-SI≤30×)	0.01 to 0.1 µM	0.1 to 1 µM			
Cc1cc(OCC(=O)O)c(F)c(Cl)c1Cc1ccc(O)c(C(C)C)c1F [Compound 109, 2-(3-chloro-2-fluoro-4-(2-fluoro-4-hydroxy-3-isopropylbenzyl)-5-methylphenoxy)acetic acid]	+++ (T3-SI>30×)	< 0.01 µM	0.01 to 0.1 µM			
C=C(C)c1cc(OCC(=O)O)cc(Cl)c1Cc1ccc(O)c(C(C)C)c1F [Compound 46, 2-(3-chloro-4-(2-fluoro-4-hydroxy-3-isopropylbenzyl)-5-(prop-1-en-2-yl)phenoxy)acetic acid]	++ (3×<T3-SI≤30×)	< 0.01 µM	0.01 to 0.1 µM			
CCCC(c1ccc(F)cc1)c1c(O)ccc(Cc2c(Cl)cc(OCC(=O)O)cc2Cl)c1F (stereo not drawn) [Compound 34, 2-(3,5-dichloro-4-(2-fluoro-3-(1-(4-fluorophenyl)butyl)-4-hydroxybenzyl)phenoxy)acetic acid]	++ (3×<T3-SI≤30×)	0.1 to 1 µM	> 1 µM			
CC(C)c1c(O)ccc(Cc2c(Cl)cc(OCC(=O)O)c(F)c2C(C)C)c1F [Compound 123, 2-(5-chloro-2-fluoro-4-(2-fluoro-4-hydroxy-3-isopropylbenzyl)-3-isopropylphenoxy)acetic acid]	++ (3×<T3-SI≤30×)	0.01 to 0.1 µM	0.1 to 1 µM			
COc1c(Cc2c(Cl)cc(OCC(=O)O)cc2Cl)ccc(O)c1C(C)C [Compound 54, 2-(3,5-dichloro-4-(4-hydroxy-3-isopropyl-2-methoxybenzyl)phenoxy)acetic acid]	++ (3×<T3-SI≤30×)	0.1 to 1 µM	> 1 µM			
Cc1cc(OCC(=O)O)c(F)c(C)c1Cc1ccc(O)c(C(C)C)c1 [Compound 58, 2-(2-fluoro-4-(4-hydroxy-3-isopropylbenzyl)-3,5-dimethylphenoxy)acetic acid]	+++ (T3-SI>30×)	0.01 to 0.1 µM	0.1 to 1 µM			
CC(C)c1cc(Cc2c(Cl)cc(OCC(=O)O)cc2Cl)ccc1O [JD-21, reference compound]				0.079 µM	14	0.19 µM
C=C(C)c1c(F)c(OCC(=O)O)cc(Cl)c1Cc1ccc(O)c(C(C)C)c1F [Compound 121, 2-(5-chloro-2-fluoro-4-(2-fluoro-4-hydroxy-3-isopropylbenzyl)-3-(prop-1-en-2-yl)phenoxy)acetic acid]	++ (3×<T3-SI≤30×)	0.1 to 1 µM	> 1 µM			
Cc1cc(OCC(=O)O)c(F)c(Cl)c1Cc1ccc(O)c(C(C)C)c1 [Compound 115, 2-(3-chloro-2-fluoro-4-(4-hydroxy-3-isopropylbenzyl)-5-methylphenoxy)acetic acid]	++ (3×<T3-SI≤30×)	0.01 to 0.1 µM	0.1 to 1 µM			
CCc1cc(OCC(=O)O)cc(Cl)c1Cc1ccc(O)c(C(C)C)c1F [Compound 43, 2-(3-chloro-5-ethyl-4-(2-fluoro-4-hydroxy-3-isopropylbenzyl)phenoxy)acetic acid]	++ (3×<T3-SI≤30×)	0.01 to 0.1 µM	0.01 to 0.1 µM			
O=C(O)COc1cc(Cl)c(Cc2ccc(O)c(Cc3ccc(F)cc3)c2)c(Cl)c1F [Compound 83, 2-(3,5-dichloro-2-fluoro-4-(3-(4-fluorobenzyl)-4-hydroxybenzyl)phenoxy)acetic acid]	+++ (T3-SI>30×)	0.01 to 0.1 µM	0.1 to 1 µM			
